# Activity calls are given as the source filed them. The rule behind the calls is not given here. Non-standard residues stand in square brackets, D forms with d. Residues, ends and D or L forms follow the SMILES beside them. ξ: configuration not given here. ξY = NC(Cc1ccc(O)cc1)C(=O)O; ξR = N=C(N)NCCCC(N)C(=O)O; ξN = NC(=O)CC(N)C(=O)O; ξI = CCC(C)C(N)C(=O)O
# Key:
# Klebsiella pneumoniae [1] = experiment: Antimicrobial activity against Klebsiella pneumoniae NCTC 418 incubated for 16 to 20 hrs in full muller hinton medium by broth microdilution method; format: functional; conditions: time 16-20 hrs
# Pseudomonas aeruginosa [2] = experiment: Antimicrobial activity against Pseudomonas aeruginosa PAO1 incubated for 16 to 20 hrs in full muller hinton medium by broth microdilution method; format: functional; conditions: time 16-20 hrs
# Staphylococcus aureus [3] = experiment: Antimicrobial activity against methicillin-resistant Staphylococcus aureus COL incubated for 16 to 20 hrs in full muller hinton medium by broth microdilution method; format: functional; conditions: time 16-20 hrs
# Klebsiella pneumoniae [4] = experiment: Antimicrobial activity against Klebsiella pneumoniae NCTC 418 incubated for 16 to 20 hrs in 12.5 % muller hinton medium by broth microdilution method; format: functional; conditions: time 16-20 hrs
# Staphylococcus aureus [5] = experiment: Antimicrobial activity against methicillin-resistant Staphylococcus aureus COL incubated for 16 to 20 hrs in 12.5 % muller hinton medium by broth microdilution method; format: functional; conditions: time 16-20 hrs
# [6] = Hemolytic activity in human RBC incubated for 4 hrs; format: toxicity, cell-based; conditions: erythrocyte
# rRNA = experiment: Binding affinity to [gamma32 P-ATP] labeled Escherichia coli MG1655 23S ribosomal RNA (5-CCCTTGGGACCTACTTC-3') at U2506 position assessed as increase in band intensity at 1 uM incubated for 2.5 hrs in full muller hinton medium by CMCT based gel electrophoresis; format: nucleic-acid assay
# Pseudomonas aeruginosa [7] = experiment: Antibacterial activity against multidrug-resistant Pseudomonas aeruginosa PA14 incubated for 16 to 20 hrs in full muller hinton medium by broth microdilution method; format: functional; conditions: time 16-20 hrs
# Pseudomonas aeruginosa [8] = experiment: Antibacterial activity against multidrug-resistant Pseudomonas aeruginosa PA14 4.13 harboring phoQ mutant incubated for 16 to 20 hrs in full muller hinton medium by broth microdilution method; format: functional; conditions: time 16-20 hrs
# Pseudomonas aeruginosa [9] = experiment: Antibacterial activity against multidrug-resistant Pseudomonas aeruginosa PA14 4.18 harboring pmrB mutant incubated for 16 to 20 hrs in full muller hinton medium by broth microdilution method; format: functional; conditions: time 16-20 hrs
# Pseudomonas aeruginosa [10] = experiment: Antibacterial activity against multidrug-resistant Pseudomonas aeruginosa PA14 2P4 harboring pmrB mutant incubated for 16 to 20 hrs in full muller hinton medium by broth microdilution method; format: functional; conditions: time 16-20 hrs
# Pseudomonas aeruginosa [11] = experiment: Antibacterial activity against multidrug-resistant Pseudomonas aeruginosa clinical isolate ZEM-1A incubated for 16 to 20 hrs in full muller hinton medium by broth microdilution method; format: functional; conditions: time 16-20 hrs
# Pseudomonas aeruginosa [12] = experiment: Antibacterial activity against multidrug-resistant Pseudomonas aeruginosa clinical isolate ZEM9A incubated for 16 to 20 hrs in full muller hinton medium by broth microdilution method; format: functional; conditions: time 16-20 hrs
# Klebsiella pneumoniae [13] = experiment: Antibacterial activity against multidrug-resistant Klebsiella pneumoniae clinical isolate OXA-48 incubated for 16 to 20 hrs in full muller hinton medium by broth microdilution method; format: functional; conditions: time 16-20 hrs
# Klebsiella pneumoniae [14] = experiment: Antibacterial activity against multidrug-resistant Klebsiella pneumoniae clinical isolate OXA-48 incubated for 16 to 20 hrs in 12.5 % muller hinton medium by broth microdilution method; format: functional; conditions: time 16-20 hrs
# Enterobacter cloacae [15] = experiment: Antibacterial activity against multidrug-resistant Enterobacter cloacae incubated for 16 to 20 hrs in full muller hinton medium by broth microdilution method; format: functional; conditions: time 16-20 hrs
# Lipid bilayer [16] = experiment: Induction of membrane disruption in egg yolk phosphatidyl glycerol at 10 ug/ml by measuring vesicle leakage; conditions: dose 10.0 µg/ml
# Lipid bilayer [17] = experiment: Induction of membrane disruption in egg yolk phosphatidyl choline at 10 ug/ml by measuring vesicle leakage; conditions: dose 10.0 µg/ml
# Bacteria = experiment: Binding affinity to his-tagged DnaK (unknown origin) expressed in Escherichia coli BL21 (DE3) in dilute muller hinton medium by microscale thermophoresis analysis
# Escherichia coli [18] = experiment: Antimicrobial activity against Escherichia coli W3110 incubated for 16 to 20 hrs in full muller hinton medium by broth microdilution method; format: functional; conditions: time 16-20 hrs
# Pseudomonas aeruginosa [19] = experiment: Antimicrobial activity against Pseudomonas aeruginosa PAO1 incubated for 16 to 20 hrs in 12.5 % muller hinton medium by broth microdilution method; format: functional; conditions: time 16-20 hrs
# Escherichia coli [20] = experiment: Bacteriostatic activity against Escherichia coli at 8 times MIC in full muller hinton medium by Time-kill assay; format: functional, organism-based
# Klebsiella pneumoniae [21] = experiment: Bacteriostatic activity against Klebsiella pneumoniae at 8 times MIC in full muller hinton medium by Time-kill assay; format: functional, organism-based
# Escherichia coli [22] = experiment: Bacteriostatic activity against Escherichia coli assessed as detachment of inner membrane from outer membrane by measuring a large void at 8 times MIC in full muller hinton medium by transmission electron microscopic analysis; format: functional, organism-based
# Klebsiella pneumoniae [23] = experiment: Bacteriostatic activity against Klebsiella pneumoniae assessed as detachment of inner membrane from outer membrane by measuring a large void at 8 times MIC in full muller hinton medium by transmission electron microscopic analysis; format: functional, organism-based
# Escherichia coli [24] = experiment: Bacteriostatic activity against Escherichia coli assessed as small intracellular vesicles at 8 times MIC in full muller hinton medium by transmission electron microscopic analysis; format: functional, organism-based
# Klebsiella pneumoniae [25] = experiment: Bacteriostatic activity against Klebsiella pneumoniae assessed as small intracellular vesicles at 8 times MIC in full muller hinton medium by transmission electron microscopic analysis; format: functional, organism-based
# Escherichia coli [26] = experiment: Bacteriostatic activity against Escherichia coli assessed as membrane perturbation at 8 times MIC in full muller hinton medium by transmission electron microscopic analysis; format: functional, organism-based
# Klebsiella pneumoniae [27] = experiment: Bacteriostatic activity against Klebsiella pneumoniae assessed as membrane perturbation at 8 times MIC in full muller hinton medium by transmission electron microscopic analysis; format: functional, organism-based
# Enterobacter cloacae [28] = experiment: Antibacterial activity against multidrug-resistant Enterobacter cloacae incubated for 16 to 20 hrs in 12.5 % muller hinton medium by broth microdilution method; format: functional; conditions: time 16-20 hrs
smiles,measurement,setting,value
CCC(C)C(NC(=O)C(CCCNC(=N)N)NC(=O)C(CCCNC(=N)N)NC(=O)C1CCCN1C(=O)C1CCCN1C(=O)C(CCCNC(=N)N)NC(=O)C1CCCN1C(=O)C(CCCNC(=N)N)NC(=O)C1CCCN1C(=O)C(CC(C)C)NC(=O)C(Cc1ccc(O)cc1)NC(=O)C1CCCN1C(=O)C1CCCN1C(=O)C(CCCCN)NC(=O)C(CC(=O)O)NC(=O)C(N)C(C)C)C(=O)NC(Cc1ccc(O)cc1)C(=O)NC(CC(N)=O)C(=O)NC(CCCNC(=N)N)C(N)=O (centres undefined) (H-VDKPPYLPRPRPPRRIYNR-NH2; configuration not given here),MIC,Klebsiella pneumoniae [1],> 64 µg/mL
same,MIC,Pseudomonas aeruginosa [2],> 64 µg/mL
same,MIC,Staphylococcus aureus [3],> 64 µg/mL
same,MIC,Klebsiella pneumoniae [4],> 16 µg/mL
same,MIC,Staphylococcus aureus [5],> 64 µg/mL
same,MHC,[6],> 1000 µg/mL
same,Activity,rRNA,inactive
same,MIC,Pseudomonas aeruginosa [7],> 64 µg/mL
same,MIC,Pseudomonas aeruginosa [8],> 64 µg/mL
same,MIC,Pseudomonas aeruginosa [9],> 64 µg/mL
same,MIC,Pseudomonas aeruginosa [10],> 64 µg/mL
same,MIC,Pseudomonas aeruginosa [11],> 64 µg/mL
same,MIC,Pseudomonas aeruginosa [12],> 64 µg/mL
same,MIC,Klebsiella pneumoniae [13],> 64 µg/mL
same,MIC,Klebsiella pneumoniae [14],> 64 µg/mL
same,MIC,Enterobacter cloacae [15],> 64 µg/mL
same,Activity,Lipid bilayer [16],Active
same,Activity,Lipid bilayer [17],Active
same,Activity,Bacteria,inactive
CCC(C)C(NC(=O)C(CCCNC(=N)N)NC(=O)[C@H](CCCNC(=N)N)NC(=O)[C@@H]1CCCN1C(=O)[C@@H]1CCCN1C(=O)[C@H](CCCNC(=N)N)NC(=O)[C@@H]1CCCN1C(=O)[C@H](CCCNC(=N)N)NC(=O)[C@@H]1CCCN1C(=O)[C@H](CC(C)C)NC(=O)[C@H](Cc1ccc(O)cc1)NC(=O)[C@@H]1CCCN1C(=O)[C@@H]1CCCN1C(=O)[C@H](CCCCN)NC(=O)[C@H](CC(=O)O)NC(=O)[C@@H](N)C(C)C)C(=O)NC(Cc1ccc(O)cc1)C(=O)NC(CC(N)=O)C(=O)NC(CCCNC(=N)N)C(N)=O (some centres undefined) (H-VDKPPYLPRPRPPR[ξR][ξI][ξY][ξN][ξR]-NH2),MIC,Escherichia coli [18],4 µg/mL
same,MIC,Staphylococcus aureus [3],> 64 µg/mL
same,MIC,Pseudomonas aeruginosa [19],8 µg/mL
same,MIC,Staphylococcus aureus [5],> 16 µg/mL
same,MHC,[6],> 1000 µg/mL
same,Activity,rRNA,Active
same,Activity,Escherichia coli [20],Active
same,Activity,Klebsiella pneumoniae [21],Active
same,Activity,Escherichia coli [22],Active
same,Activity,Klebsiella pneumoniae [23],Active
same,Activity,Escherichia coli [24],Active
same,Activity,Klebsiella pneumoniae [25],Active
same,Activity,Escherichia coli [26],Active; Few Membrane Perturbation Observed
same,Activity,Klebsiella pneumoniae [27],Active; Few Membrane Perturbation Observed
same,MIC,Pseudomonas aeruginosa [7],> 64 µg/mL
same,MIC,Pseudomonas aeruginosa [10],> 64 µg/mL
same,MIC,Pseudomonas aeruginosa [12],> 64 µg/mL
same,MIC,Enterobacter cloacae [28],1 µg/mL
same,Activity,Lipid bilayer [16],Active
same,Activity,Lipid bilayer [17],Active

# Source: ChEMBL document CHEMBL6083262, “Stereorandomized Oncocins with Preserved Ribosome Binding and Antibacterial Activity” (J Med Chem, 2024)
